# Laboratory results published in PubChem BioAssay AID720587 (Broad Institute, 2013).
# Several values for one entry are separate records, joined by “and”; a condition that tells them apart may be missing. Identical values can stand only once.
# Test system: A673 Ewing sarcoma viability, CellTiter-Glo ATP luminescence, 72 h
# Assay: EWS/Fli1-dependent A673 cell killing, confirmation, CellTiter-Glo luminescence, cherry-pick retest (AID 720587)
row,Structure (SMILES),AC35
1,O=C(O)c1ccccc1C(=O)Nc1ccc(Oc2ccc3ccccc3c2)cc1,15.6 µM
2,COC(=O)CC1(C(=O)OC)Oc2ccc(Br)cc2C(=O)N1c1cccc(Cl)c1Cl (stereo not given),14.2 µM
3,COc1ccc(Cn2cc3c(-c4ccc(F)cc4)nnc-3c3cc(OC)c(OC)cc32)cc1,4.86 µM
4,COC(=O)C[C@@H]1CC[C@H]2[C@H](COc3ccc(NC(=O)Nc4cc(C)cc(C)c4)cc3C(=O)N2C)O1,22.2 µM
5,O=c1[nH]c(/C=C2\C=Nc3ccccc32)c(O)n1Cc1ccccc1F,3.16 µM
6,C[C@H](CO)N1C[C@H](C)[C@H](CN(C)Cc2ccc(C(=O)Nc3ccccc3N)cc2)Oc2ccc(N(C)C)cc2C1=O,9.49 µM
7,COc1cc2c(cc1NC(=O)CN(C)Cc1ccc(OC)c(OC)c1)oc1ccccc12,21.5 µM
8,CC(=NNc1ccc2ccccc2n1)c1ccccn1,0.234 µM
9,CO[C@H]1CN(C)C(=O)c2ccc(NC(=O)c3ccc(-c4ccccc4)cc3)cc2OC[C@H](C)NC[C@H]1C,10.5 µM
10,N#CC(C#N)=C1C=CC=CN1/C(=C\c1ccco1)C(=O)c1ccc(Cl)cc1,3.04 µM
11,CC(=NNc1ccc2ccccc2n1)c1ccccc1O,13.9 µM
12,C(=N\Nc1nc2ccccc2[nH]1)/c1ccccn1,1.74 µM
13,N#C[C@H]1[C@H](c2ccc(-c3ccccc3F)cc2)[C@@H](CO)N1C(=O)c1ccccn1,14.5 µM
14,COc1ccc(NC(=O)N2CCCCN3[C@H](CO)[C@H](c4ccc(C#CCC(C)C)cc4)[C@H]3C2)cc1,6.47 µM
15,Cc1ccc(S(=O)(=O)Nc2ccc3c(c2)C(=O)N([C@@H](C)CO)C[C@@H](C)[C@H](CN(C)Cc2ccc(C(F)(F)F)cc2)OCCCC[C@H](C)O3)cc1,12.1 µM
16,Cc1ccc(C(=O)O/N=C(\N)c2ccccn2)cc1,17.7 µM
17,C[C@@H]1CN([C@@H](C)CO)C(=O)Cc2cc(NC(=O)Nc3ccc(C(F)(F)F)cc3)ccc2O[C@@H]1CN(C)Cc1ccc(C(=O)Nc2ccccc2N)cc1,10.9 µM
18,CN=c1scc(-c2ccccc2F)n1/N=C/c1ccc[nH]1,10.1 µM
19,C[C@@H]1CCCCO[C@H](CN(C)Cc2ccc(C(F)(F)F)cc2)[C@H](C)CN([C@H](C)CO)C(=O)c2cc(NC(=O)CCCN(C)C)ccc2O1,7.73 µM
20,COc1ccccc1NC(=O)N1CCCCN2[C@H](CO)[C@H](c3ccc(-c4cccc(C)c4)cc3)[C@H]2C1,9.29 µM
21,C[C@H](CO)N1C[C@H](C)[C@H](CN(C)Cc2ccc(C(F)(F)F)cc2)Oc2ccc(NC(=O)CCCCCC(=O)Nc3ccccc3N)cc2CC1=O,7.93 µM
22,CCOc1ccc2nc(NC3=NC(c4ccc(OC)cc4)CC(=O)N3)nc(C)c2c1 (stereo not given),12.1 µM
23,C=C1C(=O)OC2C1CCC(C)C1C=CC(=O)C12C (stereo not given),7.41 µM

row,Structure (SMILES),AC35
1,COc1ccc(-c2cn(-c3ccc(OC)cc3)c3[n+]2-c2ccccc2CC3)cc1,13.6 µM
2,COc1ccc(C2=Nn3c([n+](C)c4ccccc43)SC2)cc1,20.2 µM
3,COC(=O)C[C@@H]1CC[C@@H]2[C@H](COc3ccc(NC(=O)c4cc(C)on4)cc3C(=O)N2C)O1,14.5 µM
4,CN(Cc1cnc2nc(N)nc(N)c2n1)c1ccc(C(=O)N[C@@H](CCC(=O)O)C(=O)O)cc1,0.0191 µM and 0.018 µM
5,C[C@H]1CN([C@@H](C)CO)S(=O)(=O)c2ccc(C#CC(C)(C)O)cc2O[C@@H]1CN(C)Cc1ccc(-c2ccccc2)cc1,0.656 µM
6,O=C(Nc1ccc(Br)cc1)c1ccc(F)c(S(=O)(=O)N2CCN(c3ccccn3)CC2)c1,9.42 µM
7,CC(=O)Oc1ccc(-c2ccc(C(=O)Nc3cccc(S(=O)(=O)N4CCOCC4)c3)cc2)cc1,15.3 µM
8,COc1ccccc1-c1ccc(OCCCN2CCC(C(O)(c3ccccc3)c3ccccc3)CC2)cc1,9.43 µM
9,COc1ccc(CN(C)C[C@H]2Oc3ccc(NC(=O)CCCCCC(=O)Nc4ccccc4N)cc3CC(=O)N([C@H](C)CO)C[C@H]2C)cc1,18 µM
10,COC(=O)C[C@@H]1CC[C@@H]2[C@@H](COc3ccc(NC(=O)Nc4cccc(Cl)c4)cc3C(=O)N2C)O1,10.3 µM
11,CCCCNC1=CC(=O)C(=O)c2ccccc21,2.77 µM
12,C[C@@H]1CN([C@@H](C)CO)C(=O)c2cccc(NC(=O)CCCCCC(=O)Nc3ccccc3N)c2O[C@@H]1CN(C)Cc1ccc(Oc2ccccc2)cc1,14.8 µM
13,CNC[C@H](CC1CCCCC1)NC[C@H](CO)NCCc1cccc(C(F)(F)F)c1,9.23 µM
14,CN(C)C(=S)N=Nc1[nH]c2ccccc2c1O,11.1 µM
15,COc1cccc(CN2CCC2(C)C(=O)Nc2cccc3cccnc23)c1F (stereo not given),14.3 µM
16,C[C@@H]1O[C@@H](O[C@H]2C[C@@H](O)[C@]3(CO)[C@H]4[C@H](O)C[C@]5(C)[C@@H](C6COC(=O)C6)CC[C@]5(O)[C@@H]4CC[C@]3(O)C2)[C@H](O)[C@H](O)[C@H]1O (stereo not given in full),2.06 µM
17,COCC(=O)Nc1ccc2c(c1)[C@@H]1C[C@@H](CC(=O)NCc3ccc(-c4ccccc4)cc3)O[C@@H](CO)[C@@H]1O2,12.7 µM
18,CCS(=O)(=O)N1Cc2ccccc2CC1C(=O)Nc1nnc(SCc2ccc(C#N)cc2)s1 (stereo not given),12.5 µM
19,N#CC1C=Cc2c(ccc3ccccc23)N1C(=O)c1ccccc1 (stereo not given),9.42 µM
20,Cc1ccc(N2C(=O)c3cccc4c(N)ccc(c34)C2=O)c2cccnc12,0.0576 µM
21,COc1cc2oc3cc(C#Cc4ccc(N)cc4)ccc3c(=O)c2cc1OC,17.4 µM
22,O=C(Nc1ccccc1F)N1CCCCN2[C@H](CO)[C@H](c3ccc(/C=C/c4ccccc4)cc3)[C@H]2C1,3.64 µM
23,Cc1cc(C(=O)Nc2ccc3c(c2)C(=O)N(C)[C@@H]2CC[C@@H](CC(=O)NCc4ccc(-c5ccccc5)cc4)O[C@H]2CO3)no1,8.06 µM

row,Structure (SMILES),AC35
1,Cc1nc2ncccn2c1-c1csc(Nc2ccc(O)cc2)n1,1.35 µM
2,COC(=O)C[C@@H]1CC[C@@H]2[C@@H](COc3ccc(NC(=O)Nc4cccc(F)c4)cc3C(=O)N2C)O1,13.5 µM
3,Nc1nc(N)c2cc(Sc3ccc4ccccc4c3)ccc2n1,3.35 µM
4,Nc1nc(=S)c2ncn([C@@H]3O[C@H](CO)[C@@H](O)[C@H]3O)c2[nH]1,1.53 µM
5,CCCCCCCN(c1ccccc1)[C@@H]1C[C@H]2CCCC(=O)N3CC[C@@H](C1)[C@@H]23,10.2 µM
6,C[C@@H]1CN([C@@H](C)CO)C(=O)c2cccc(NC(=O)Nc3cccc4ccccc34)c2O[C@@H]1CN(C)Cc1ccc(C(=O)Nc2ccccc2N)cc1,14.8 µM
7,N#C[C@@H]1[C@H](c2ccc(C#Cc3ccc(F)cc3)cc2)[C@@H](CO)N1C(=O)Nc1ccc(F)cc1,12.3 µM
8,CCCN1C/C(=C/c2ccc3c(c2)OCO3)C(=O)/C(=C/c2ccc3c(c2)OCO3)C1,3.77 µM
9,BrC(=C\c1ccccc1)/C=N/n1cnnc1,2.23 µM
10,COc1ccc([Si](C)(C)[C@H]2[C@H](CCO)O[C@@]3(C(=O)N(c4ccccc4)c4ccccc43)[C@@H]2C)cc1,7.61 µM
11,O=C(CCCN1C(=O)/C(=C/c2ccccc2Cl)SC1=S)NNC(=O)c1ccc(Cl)cc1,23.9 µM
12,C[C@H]1CN([C@@H](C)CO)S(=O)(=O)c2ccc(C#Cc3ccncc3)cc2O[C@@H]1CN(C)S(=O)(=O)c1ccccc1,16.5 µM
13,CCCCNC(=O)C(c1ccc(OCC(=O)OC)c(C(=O)OC)c1)N(CCOC)C(=O)CCCCCN1C(=O)NC(c2ccc(-c3ccccc3)cc2)C(C(=O)OCc2ccccc2)=C1C (stereo not given),7.63 µM
14,Oc1c(C(c2ccc(Cl)cc2)N2CCCC2)cc(Cl)c2cccnc12 (stereo not given),1.47 µM
15,C[C@@H]1CN([C@@H](C)CO)C(=O)c2cc(NS(=O)(=O)c3ccccc3)ccc2O[C@@H]1CN(C)Cc1ccc(C(=O)Nc2ccccc2N)cc1,8.39 µM
16,C(=Cc1nc2ccccc2o1)c1ccc2c(c1)OCO2,19 µM
17,CCCCc1c(-c2ccccc2OC)ncn1Cc1ccc(C(C)(C)C)cc1,11.8 µM
18,Cc1nc(N)nc(N)c1CCCc1ccc(Cl)c(Cl)c1,2.8 µM
19,Oc1c(Cl)cc(Cl)c(Cl)c1Cc1c(O)c(Cl)cc(Cl)c1Cl,15.9 µM
20,O=c1c(Cl)cc(Cl)nn1-c1ccccc1,5.55 µM
21,CC1(C(=O)NCc2ccco2)Cc2c(-c3cccc(C(N)=O)c3)ccnc2O1 (stereo not given),5.1 µM
22,CC(C)CC#Cc1ccc([C@@H]2[C@@H](CO)N3CCCCN(S(=O)(=O)c4ccc(F)cc4)C[C@H]23)cc1,8.8 µM
23,C[C@@H]1CN([C@@H](C)CO)S(=O)(=O)c2ccc(C#CC(C)(C)O)cc2O[C@H]1CN(C)Cc1ccc(-c2ccccc2)cc1,5.75 µM

row,Structure (SMILES),AC35
1,COc1ccccc1C(CCNCc1ccc(N(C)C)cc1)c1ccc(OC(C)C)cc1 (stereo not given),4.19 µM
2,Cc1ccc(C)c(S(=O)(=O)N2CCN(c3ncnc4sccc34)CC2)c1,5.35 µM
3,COc1ccc(OC)c(Cc2cnc3nc(N)nc(N)c3c2C)c1,0.196 µM
4,Cc1c(Cc2ccc3c(c2)OCO3)sc(NC(=O)C(C)(C)C)c1C#N,14.9 µM
5,Cc1nn(Cc2ccccc2Cl)c2sc(C(=O)Nc3ccccc3N3CCOCC3)cc12,13.5 µM
6,C=CCOc1ccccc1C(=O)/C=C1/C(=O)Nc2ccccc21,9.62 µM
7,C[C@H](CO)N1C[C@H](C)[C@H](CN(C)Cc2ccc(Oc3ccccc3)cc2)Oc2ccc(NC(=O)CCCCCC(=O)Nc3ccccc3N)cc2CC1=O,4.84 µM
8,CN1c2ccc(-c3ccc(C#N)cc3)cc2[C@H]2[C@H](CCN2S(=O)(=O)c2cccc(F)c2)[C@@H]1CO,4.45 µM
9,CN(C[C@H]1N[C@@H](CO)[C@@H]1c1ccc(C2=CCCC2)cc1)C(=O)c1ccc(F)cc1,4.19 µM
10,C[C@H]1CN([C@@H](C)CO)C(=O)c2cc(NS(=O)(=O)c3ccc(Cl)cc3)ccc2O[C@H]1CN(C)Cc1ccc(C(=O)Nc2ccccc2N)cc1,13.1 µM
11,O=c1ccc2[n+]([O-])c3ccc(O)cc3oc-2c1,8.92 µM
12,NC(Cc1ccc(C(F)(F)F)cc1)c1csc(NC(=O)Nc2ccccc2Cc2ccccc2)n1 (stereo not given),12.8 µM
13,COc1cc(/C=N\Nc2nc(-c3ccc(C)cc3)c(NC(C)=O)s2)ccc1O,14.4 µM
14,CC1(C)Oc2cc3oc(-c4cc(O)cc(O)c4)cc3cc2CC1O (stereo not given),21.7 µM
15,O=C(C1CC1)N1C[C@@H]2N[C@H](C1)C2c1ccc(/C=C/c2ccccc2)cc1 (stereo not given in full),15.2 µM
16,C[C@@H]1CN([C@@H](C)CO)C(=O)c2cccc(NS(=O)(=O)c3ccccc3)c2O[C@@H]1CN(C)Cc1ccc(C(=O)Nc2ccccc2N)cc1,8.86 µM
17,Cc1ccc(OCCNC(=O)c2cccc(S(=O)(=O)NCc3ccccc3)c2)cc1,4.65 µM
18,CC1(C)N=C(N)N=C(N)N1c1ccc(OCCCOc2ccccc2)c(Cl)c1,1.48 µM
19,CC12CCC3C(CCC4(O)CC(O)CCC34C=NO)C1(O)CCC2C1=COC(=O)C1 (stereo not given),0.251 µM
20,COc1ccc(S(=O)(=O)N2CC[C@@H]3[C@@H](CO)Nc4ccc(-c5ccc(C#N)cc5)cc4[C@@H]32)cc1,8.87 µM
21,O=C1NC(=O)N(Cc2ccccc2)C(=O)/C1=C\C=C\c1ccco1,5.05 µM
